Experimental data as given in Sander's compilation of Henry's law constants.
Where “and” joins values, the source holds several entries; their conditions need not be identical. Identical values can stand only once.

Assay: Henry solubility constant Hcp at 298.15 K (mol/(m3 Pa))
[1] = reference: Chang and Criddle (1995)
[2] = reference: Rochester and Symonds (1973)
[3] = reference: Bobadilla et al. (2003)
[4] = reference: Butler and Ramchandani (1935)
[5] = reference: Brockbank et al. (2013)
[6] = reference: Kuramochi et al. (2004)
[7] = reference: Drouillard et al. (1998)
[8] = reference: Warner et al. (1980)
[9] = reference: Ondo and Dohnal (2007)
[10] = reference: Sarraute et al. (2006)
[11] = reference: Christie and Crisp (1967)
[12] = reference: Shunthirasingham et al. (2013)
[13] = reference: Schwarz and Wasik (1977)
[14] = reference: Dohnal and Fenclová (1995)
[15] = reference: Feigenbrugel et al. (2004b)
[16] = reference: Parsons et al. (1972)
[17] = reference: Copolovici and Niinemets (2005)

COP(=O)(OC)C(O)C(Cl)(Cl)Cl (stereo unspecified)
Henry solubility constant Hcp (reference: Kawamoto and Urano (1989)): > 810

C[C@@H]1CCCC[C@H]1C (relative stereo) [trans-1,2-dimethylcyclohexane]
Henry solubility constant Hcp (reference: Dohányosová et al. (2004)): 1.6e-05

FC(C(F)(F)F)C(F)(F)F [1,1,1,2,3,3,3-heptafluoropropane]
Henry solubility constant Hcp (reference: Reichl (1995)): 1.4e-05

FCC(F)(F)F [1,1,1,2-tetrafluoroethane]
Henry solubility constant Hcp [1]: 0.00019
Henry solubility constant Hcp (reference: Maaßen (1995)): 0.00016
Henry solubility constant Hcp (reference: Reichl (1995)): 0.00016
Henry solubility constant Hcp (reference: Zheng et al. (1997)): 0.00016

OC(C(F)(F)F)C(F)(F)F [1,1,1,3,3,3-hexafluoro-2-propanol]
Henry solubility constant Hcp [2]: 0.24

CC(O)C(F)(F)F (stereo unspecified) [1,1,1-trifluoro-2-propanol]
Henry solubility constant Hcp [2]: 0.45

CC(=O)C(F)(F)F [1,1,1-trifluoro-2-propanone]
Henry solubility constant Hcp (reference: Betterton (1991)): 1.4

BrC(Br)C(Br)Br [1,1,2,2-tetrabromoethane]
Henry solubility constant Hcp (reference: Khalfaoui and Newsham (1994a)): 0.01

OCCC(F)(F)C(F)(F)C(F)(F)C(F)(F)C(F)(F)C(F)(F)C(F)(F)C(F)(F)C(F)(F)C(F)(F)F [1,1,2,2-tetrahydroperfluoro dodecanol]
Henry solubility constant Hcp (reference: Wu and Chang (2011)): 0.00013

ClCC(Cl)Cl [1,1,2-trichloroethane]
Henry solubility constant Hcp [3]: 0.012

CC(F)(Cl)Cl [1,1-dichloro-1-fluoroethane]
Henry solubility constant Hcp (reference: Kutsuna (2013)): 0.00029
Henry solubility constant Hcp (reference: Maaßen (1995)): 0.00028

ClC(Cl)=C(c1ccc(Cl)cc1)c1ccc(Cl)cc1 [1,1-dichloro-2,2-bis-(4-chlorophenyl)-ethene]
Henry solubility constant Hcp (reference: Jantunen and Bidleman (2006)): 0.029

CC(F)F [1,1-difluoroethane]
Henry solubility constant Hcp (reference: Maaßen (1995)): 0.0005
Henry solubility constant Hcp (reference: Reichl (1995)): 0.00049
Henry solubility constant Hcp (reference: Zheng et al. (1997)): 0.00049

Clc1c(Cl)c(Cl)c2c(c1Cl)Oc1ccccc1O2 [1,2,3,4-tetrachlorodibenzo-p-dioxin]
Henry solubility constant Hcp (reference: Santl et al. (1994)): 0.5

OCC(O)CO [1,2,3-propanetriol]
Henry solubility constant Hcp [4]: 580

Clc1cccc(Cl)c1Cl [1,2,3-trichlorobenzene]
Henry solubility constant Hcp [5]: 0.0063

ClCC(Cl)CCl [1,2,3-trichloropropane]
Henry solubility constant Hcp (reference: Tancrède and Yanagisawa (1990)): 0.044

Brc1cc(Br)c(Br)cc1Br [1,2,4,5-tetrabromobenzene]
Henry solubility constant Hcp [6]: 0.0027

Clc1cc(Cl)c(Cl)cc1Cl [1,2,4,5-tetrachlorobenzene]
Henry solubility constant Hcp (reference: McPhedran et al. (2013)): 0.018

Brc1ccc(Br)c(Br)c1 [1,2,4-tribromobenzene]
Henry solubility constant Hcp [6]: 0.031

Clc1cc(Cl)c2c(c1Cl)Oc1ccccc1O2 [1,2,4-trichlorodibenzo-p-dioxin]
Henry solubility constant Hcp (reference: Santl et al. (1994)): 0.27

ClCC(Cl)CCCCCCC(Cl)CCl (stereo unspecified) [1,2,9,10-tetrachlorodecane]
Henry solubility constant Hcp [7]: 0.056

ClCC(Cl)CCCCCCCC(Cl)CCl (stereo unspecified) [1,2,10,11-tetrachloroundecane]
Henry solubility constant Hcp [7]: 0.16

CC(N)CN (stereo unspecified) [1,2-diaminopropane]
Henry solubility constant Hcp (reference: Nguyen (2013)): 1400

CC(Cl)CCl (stereo unspecified) [1,2-dichloropropane]
Henry solubility constant Hcp (reference: Bissonette et al. (1990)): 0.003
Henry solubility constant Hcp [3]: 0.0042
Henry solubility constant Hcp [8]: 0.0035

FC(F)(Cl)C(F)(F)Cl [1,2-dichlorotetrafluoroethane]
Henry solubility constant Hcp (reference: Reichl (1995)): 9e-06

COCCOC [1,2-dimethoxyethane]
Henry solubility constant Hcp [9]: 1.4

CC12CCC(CC1)C(C)(C)O2 [1,3,3-trimethyl-2-oxabicyclo[2.2.2]octane]
Henry solubility constant Hcp (reference: Amoore and Buttery (1978)): 0.12
Henry solubility constant Hcp (reference: Kish et al. (2013)): 0.059

COc1c(Cl)cc(Cl)cc1Cl [1,3,5-trichloro-2-methoxybenzene]
Henry solubility constant Hcp (reference: Wu et al. (2022a)): 0.023

C=CC=C [1,3-butadiene]
Henry solubility constant Hcp (reference: Ross and Hudson (1957)): 0.00014

FC(Cl)C(F)(F)C(F)(F)Cl (stereo unspecified) [1,3-dichloro-1,1,2,2,3-pentafluoro-propane]
Henry solubility constant Hcp (reference: Kutsuna (2013)): 0.00011

ClC=CCCl [1,3-dichloropropene]
Henry solubility constant Hcp [8]: 0.0028

C1COCO1 [1,3-dioxolane]
Henry solubility constant Hcp [9]: 0.43

C1CNCCN1 [1,4-diazacyclohexane]
Henry solubility constant Hcp (reference: Nguyen (2013)): 4500

Brc1ccc(Br)cc1 [1,4-dibromobenzene]
Henry solubility constant Hcp [6]: 0.0094

NCCCCCCN [1,6-hexanediamine]
Henry solubility constant Hcp (reference: Nguyen (2013)): 1000

BrCCCCCCCCBr [1,8-dibromooctane]
Henry solubility constant Hcp [10]: 0.013

ClCCCCCCCCCl [1,8-dichlorooctane]
Henry solubility constant Hcp [10]: 0.0071

Cc1ccc(Br)cc1 [1-bromo-4-methylbenzene]
Henry solubility constant Hcp [5]: 0.0034

CCCCN [1-butanamine]
Henry solubility constant Hcp [4]: 0.65
Henry solubility constant Hcp [11]: 0.56

CCCCS [1-butanethiol]
Henry solubility constant Hcp (reference: Coquelet and Richon (2005)): 0.0015
Henry solubility constant Hcp (reference: Haimi et al. (2006)): 0.0015

C=CCC [1-butene]
Henry solubility constant Hcp (reference: Serra and Palavra (2003)): 4.5e-05

CCCCO[N+](=O)[O-] [1-butyl nitrate]
Henry solubility constant Hcp (reference: Hauff et al. (1998)): 0.0063
Henry solubility constant Hcp (reference: Luke et al. (1989)): 0.01

C#CCC [1-butyne]
Henry solubility constant Hcp (reference: Simpson and Lovell (1962)): 0.00072

CC(F)(F)Cl [1-chloro-1,1-difluoroethane]
Henry solubility constant Hcp [1]: 0.00015
Henry solubility constant Hcp (reference: Kutsuna (2013)): 0.00015
Henry solubility constant Hcp (reference: Maaßen (1995)): 0.00014
Henry solubility constant Hcp (reference: Reichl (1995)): 0.00014

FC(Cl)C(F)(F)F (stereo unspecified) [1-chloro-1,2,2,2-tetrafluoroethane]
Henry solubility constant Hcp (reference: Kutsuna (2013)): 0.00011
Henry solubility constant Hcp (reference: Maaßen (1995)): 0.0001
Henry solubility constant Hcp (reference: Reichl (1995)): 0.00011

CCCCCCCCCCO [1-decanol]
Henry solubility constant Hcp (reference: Lei et al. (2007)): 0.065
Henry solubility constant Hcp [12]: 0.076

CCc1cccc2ccccc12 [1-ethylnaphthalene]
Henry solubility constant Hcp [13]: 0.022

CCCCCCCO [1-heptanol]
Henry solubility constant Hcp (reference: Lei et al. (2007)): 0.36
Henry solubility constant Hcp [12]: 0.38

CCCCCCN [1-hexanamine]
Henry solubility constant Hcp [11]: 0.37

CCCCCCO [1-hexanol]
Henry solubility constant Hcp (reference: Gupta et al. (2000)): 0.39
Henry solubility constant Hcp (reference: Lei et al. (2007)): 0.51
Henry solubility constant Hcp [12]: 0.57
Henry solubility constant Hcp (reference: Souchon et al. (2004)): 0.38

CCCCCCO[N+](=O)[O-] [1-hexyl nitrate]
Henry solubility constant Hcp (reference: Hauff et al. (1998)): 0.0076

Cc1ccc(C)c(O)c1 [1-hydroxy-2,5-dimethylbenzene]
Henry solubility constant Hcp [14]: 7.5

COc1ccccc1O [1-hydroxy-2-methoxybenzene]
Henry solubility constant Hcp (reference: McFall et al. (2020)): 8.6
Henry solubility constant Hcp (reference: Sagebiel et al. (1992)): 7.7 and 9.1
Henry solubility constant Hcp (reference: Wieland et al. (2015)): 9

Cc1ccccc1O [1-hydroxy-2-methylbenzene]
Henry solubility constant Hcp [14]: 5.6
Henry solubility constant Hcp [15]: 4.2
Henry solubility constant Hcp (reference: Harrison et al. (2002)): 11
Henry solubility constant Hcp [16]: 8.2

Cc1cc(C)cc(O)c1 [1-hydroxy-3,5-dimethylbenzene]
Henry solubility constant Hcp [14]: 16

Cc1cccc(O)c1 [1-hydroxy-3-methylbenzene]
Henry solubility constant Hcp [14]: 12
Henry solubility constant Hcp [15]: 7.9

Cc1ccc(O)cc1 [1-hydroxy-4-methylbenzene]
Henry solubility constant Hcp [14]: 13
Henry solubility constant Hcp [15]: 10
Henry solubility constant Hcp [16]: 13

CC1=CC=C(C(C)C)CC1 [1-methyl-4-(1-methylethyl)-1,3-cyclohexadiene]
Henry solubility constant Hcp [17]: 0.00029
Henry solubility constant Hcp (reference: Schuhfried et al. (2015)): 0.00038

CC1=CCC(=C(C)C)CC1 [1-methyl-4-(1-methylethylidene)-cyclohexene]
Henry solubility constant Hcp [17]: 0.00038

Cc1cccc2ccccc12 [1-methylnaphthalene]
Henry solubility constant Hcp [13]: 0.028

CCC[N+](=O)[O-] [1-nitropropane]
Henry solubility constant Hcp (reference: Beneš and Dohnal (1999)): 0.13

CCCCCCCCO [1-octanol]
Henry solubility constant Hcp (reference: Lei et al. (2007)): 0.19
Henry solubility constant Hcp [12]: 0.21
Henry solubility constant Hcp (reference: Wu et al. (2022a)): 0.17
